# According to PMC9629815, “MK256 is a novel CDK8 inhibitor with potent antitumor activity in AML through downregulation of the STAT pathway” (Oncotarget, 2022):
# How the values were obtained:
# MDCK-MDR1 cells = test: MDCK-MDR1 permeability assay; type: in vitro ADME; conditions: 5 μM
# Description: (§1) MDCK-MDR1 cells were plated into 96-well Millipore Millicell-96 plates at 7,500 cells/75 μL/well and incubated for three days at 37°C with 5% CO2. Cells were washed with Hank’s Balanced Salt Solution (HBSS) with 5 mM HEPES for 30 minutes before the experiment began. MK256 was prepared by diluting DMSO stock into HBSS buffer, resulting in a final DMSO concentration of 0.1%. Prior to the experiment, cell monolayer integrity was verified by […] electrical resistance (TEER). The transport experiment was initiated by adding MK256 to the apical (75 μL) or basal (250 μL) side. Transport plates were incubated at 37°C in a humidified incubator with 5% CO2. Samples were taken from the donor and acceptor compartments after one hour and analyzed by liquid chromatography with tandem mass spectrometry (LC/MS/MS). Digoxin was used as reference control. Apparent permeability (Papp) values were calculated using the following equation: Papp = (dQ/dt)/A/C0, where dQ/dt is the initial rate of amount of test compound transported across the cell monolayer, A is the surface area of the filter membrane, and C0 is the initial concentration of the test compound, calculated for each direction using a 4-point calibration curve by LC/MS/MS. Net flux ratio between the two directional transports was calculated by the following equation: Ratio = Papp, B-A/Papp, A-B, where Papp, B-A and Papp, A-B represent the apparent permeability of test compound from the basal-to-apical and apical-to-basal side of the cellular monolayer, respectively. Recovery was calculated based on the compound concentration at the end of the experiment, compared to that at the beginning of the experiment, adjusted for volumes.
# MDR1 = test: MDCK-MDR1 permeability assay; type: in vitro ADME; conditions: dog, MDCK-MDR1, read-out: Efflux Ratio (B-A/A-B)
# Description: as §1
# [1] = MDCK-MDR1 permeability assay; type: in vitro ADME; conditions: dog, MDCK-MDR1
# Description: as §1
# [2] = test system: p-STATs and MCL-1 in MV-4-11 cells; test: Western blot of STAT pathway in MV-4-11 cells; type: cell-based; conditions: 48 hrs
# Description: For the in vitro western blot study, MV-4-11 and MOLM-14 cells were plated (6-well) at 5 × 10^5 cells per well with medium containing 1% FBS overnight. MK-256 was added in different concentrations at different time points. […] Total protein concentration was measured using the Pierce BCA protein Assay Kit (23227, Thermo Fisher Scientific). Proteins were separated on SDS-PAGE and transferred to Nitrocellulose membrane.
# CDK19/cyclin C = CDK19/cyclin C (Homo sapiens, UniProt Q9BWU1); test: SelectScreen kinase profiling, IC50; type: biochemical; conditions: read-out: IC50 against CDK19/cyclin C
# Text: (§2) MK256 was synthesized in house. The kinase profiling of MK256 against various targets was done using the SelectScreen Kinase Profiling Services provided by ThermoFisher Scientific (Walham WA, USA). https://www.thermofisher.com/us/en/home/products-and-services/services/custom-services/screening-and-profiling-services/selectscreen-profiling-service/selectscreen-kinase-profiling-service.html.
# CDK9 = CDK9 (Homo sapiens, UniProt P50750); test: SelectScreen kinase profiling, IC50; type: biochemical
# Text: as §2
# CDK8/cyclin C = CDK8/cyclin C (Homo sapiens, UniProt P49336); test: SelectScreen kinase profiling, IC50; type: biochemical; conditions: read-out: IC50 against CDK8/cyclin C
# Text: as §2
# CYP3A4-MDZ = CYP3A4-MDZ (Homo sapiens, UniProt P08684); test: Cytochrome P450 inhibition assay; type: in vitro ADME; conditions: 50 uM
# CYR2C8 = CYR2C8 (Homo sapiens, UniProt P10632); test: Cytochrome P450 inhibition assay; type: in vitro ADME; conditions: 50 uM
# In vivo mouse PK study = test: In vivo mouse PK study; parameters: species or system mice; conditions: plasma
# Description: Mice were dosed with either 1 mg/ml (IV) at a dose of 3 mg/kg or 3 mg/ml (PO) at a dose of 30 mg/kg in 40% PEG400 + 60% (30% Solutol) (final pH ~ 7). Blood samples were drawn at 5 mins, 15 mins, 30 mins, 1 hr, 2 hrs, 4 hrs, 8 hrs, and 24 hs from mice dosed with the IV route and at 1 hr, 4 hrs, 8 hrs and 24 hrs from mice dosed orally. An aliquot of 30 μL of plasma was extracted with 100 μL of 5:95 methanol:acetonitrile containing internal standard (Verapamil). The mixture was vortexed on a shaker for 15 minutes and subsequently centrifuged at 4000 rpm for 15 minutes. An aliquot of 70 μL of the supernatant was mixed with 70 μL water with 0.1% formic acid for the injection to the LC/MS/MS. Calibration standards were prepared by spiking MK256 into the blank mouse plasma. All samples are analyzed on LC/MS/MS using an AB Sciex API 4000 instrument, coupled to a Shimadzu LC-20AD LC Pump system.
# CYP1A2 = CYP1A2 (Homo sapiens, UniProt P05177); test: Cytochrome P450 inhibition assay; type: in vitro ADME; conditions: 50 uM
# SET-2 = test: Cell proliferation assay (CellTiter-Glo, 7-day); type: cell-based; conditions: Homo sapiens, SET-2, 168 h
# [3] = IV 3 mg/kg or PO 30 mg/kg study, footnote 2 not given
# CDK9, sequence (P50750 whole entry): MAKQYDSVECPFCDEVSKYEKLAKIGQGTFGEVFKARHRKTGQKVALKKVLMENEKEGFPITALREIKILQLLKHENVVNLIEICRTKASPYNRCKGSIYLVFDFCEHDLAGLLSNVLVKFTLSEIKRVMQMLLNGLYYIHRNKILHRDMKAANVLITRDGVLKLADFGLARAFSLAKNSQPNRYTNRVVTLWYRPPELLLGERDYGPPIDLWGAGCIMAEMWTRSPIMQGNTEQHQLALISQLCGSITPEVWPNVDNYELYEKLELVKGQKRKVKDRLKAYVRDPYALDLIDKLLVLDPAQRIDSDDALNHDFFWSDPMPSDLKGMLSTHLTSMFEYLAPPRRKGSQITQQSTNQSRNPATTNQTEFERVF
# CDK9, sequence (O60563 whole entry partner): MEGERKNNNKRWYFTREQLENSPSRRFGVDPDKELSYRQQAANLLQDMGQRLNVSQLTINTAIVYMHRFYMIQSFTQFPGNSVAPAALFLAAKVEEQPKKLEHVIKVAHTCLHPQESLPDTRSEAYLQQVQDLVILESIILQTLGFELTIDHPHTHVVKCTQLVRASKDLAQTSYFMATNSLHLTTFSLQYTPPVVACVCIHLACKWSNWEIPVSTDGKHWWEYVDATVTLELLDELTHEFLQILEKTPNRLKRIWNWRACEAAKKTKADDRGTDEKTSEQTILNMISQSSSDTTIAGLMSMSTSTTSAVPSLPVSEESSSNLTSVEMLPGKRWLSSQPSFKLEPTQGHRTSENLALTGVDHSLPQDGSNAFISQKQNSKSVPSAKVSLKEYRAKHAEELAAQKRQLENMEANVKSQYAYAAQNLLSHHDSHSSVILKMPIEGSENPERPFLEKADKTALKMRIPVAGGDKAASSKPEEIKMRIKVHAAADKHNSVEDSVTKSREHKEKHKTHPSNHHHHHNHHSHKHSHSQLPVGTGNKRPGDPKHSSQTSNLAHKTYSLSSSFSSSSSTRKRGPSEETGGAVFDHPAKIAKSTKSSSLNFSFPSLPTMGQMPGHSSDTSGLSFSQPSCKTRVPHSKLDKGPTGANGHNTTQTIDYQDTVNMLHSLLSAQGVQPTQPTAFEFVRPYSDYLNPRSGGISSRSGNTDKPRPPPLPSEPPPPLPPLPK
# CDK19/cyclin C, sequence (Q9BWU1 whole entry): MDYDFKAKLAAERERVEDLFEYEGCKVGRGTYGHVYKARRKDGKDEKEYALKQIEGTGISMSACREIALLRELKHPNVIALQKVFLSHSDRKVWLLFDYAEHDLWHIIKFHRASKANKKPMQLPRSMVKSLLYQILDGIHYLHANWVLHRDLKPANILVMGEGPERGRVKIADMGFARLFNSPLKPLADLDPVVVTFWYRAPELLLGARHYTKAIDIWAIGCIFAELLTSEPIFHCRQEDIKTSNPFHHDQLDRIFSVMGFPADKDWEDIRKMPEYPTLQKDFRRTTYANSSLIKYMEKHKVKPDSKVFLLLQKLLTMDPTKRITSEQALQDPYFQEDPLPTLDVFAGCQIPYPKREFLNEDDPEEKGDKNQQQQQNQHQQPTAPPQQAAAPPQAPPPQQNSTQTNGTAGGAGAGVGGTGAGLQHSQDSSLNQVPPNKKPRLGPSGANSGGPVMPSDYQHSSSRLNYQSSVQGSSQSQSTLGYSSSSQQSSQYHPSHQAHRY
# CDK19/cyclin C, sequence (P24863 whole entry partner): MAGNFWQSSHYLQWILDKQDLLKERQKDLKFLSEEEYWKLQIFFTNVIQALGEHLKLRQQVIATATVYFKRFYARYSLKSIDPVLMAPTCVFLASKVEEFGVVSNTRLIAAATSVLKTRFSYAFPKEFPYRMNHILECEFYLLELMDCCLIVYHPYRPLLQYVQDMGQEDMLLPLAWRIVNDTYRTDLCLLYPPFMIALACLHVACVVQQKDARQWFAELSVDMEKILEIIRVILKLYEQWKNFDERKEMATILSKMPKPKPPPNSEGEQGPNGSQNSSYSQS
# CYR2C8, sequence (P10632 whole entry): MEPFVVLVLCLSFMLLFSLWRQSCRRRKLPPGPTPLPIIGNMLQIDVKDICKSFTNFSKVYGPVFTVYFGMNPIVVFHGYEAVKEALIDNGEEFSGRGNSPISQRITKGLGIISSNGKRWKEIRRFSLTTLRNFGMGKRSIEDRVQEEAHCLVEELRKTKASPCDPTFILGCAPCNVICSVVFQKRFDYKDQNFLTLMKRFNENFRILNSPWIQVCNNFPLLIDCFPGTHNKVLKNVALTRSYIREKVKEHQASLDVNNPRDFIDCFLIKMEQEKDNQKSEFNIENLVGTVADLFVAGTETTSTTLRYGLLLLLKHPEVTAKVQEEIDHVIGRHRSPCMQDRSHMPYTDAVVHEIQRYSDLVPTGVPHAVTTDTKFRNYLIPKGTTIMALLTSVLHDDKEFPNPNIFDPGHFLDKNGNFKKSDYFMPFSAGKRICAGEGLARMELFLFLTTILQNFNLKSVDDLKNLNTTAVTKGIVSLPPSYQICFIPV
# CDK8/cyclin C, sequence (P49336 whole entry): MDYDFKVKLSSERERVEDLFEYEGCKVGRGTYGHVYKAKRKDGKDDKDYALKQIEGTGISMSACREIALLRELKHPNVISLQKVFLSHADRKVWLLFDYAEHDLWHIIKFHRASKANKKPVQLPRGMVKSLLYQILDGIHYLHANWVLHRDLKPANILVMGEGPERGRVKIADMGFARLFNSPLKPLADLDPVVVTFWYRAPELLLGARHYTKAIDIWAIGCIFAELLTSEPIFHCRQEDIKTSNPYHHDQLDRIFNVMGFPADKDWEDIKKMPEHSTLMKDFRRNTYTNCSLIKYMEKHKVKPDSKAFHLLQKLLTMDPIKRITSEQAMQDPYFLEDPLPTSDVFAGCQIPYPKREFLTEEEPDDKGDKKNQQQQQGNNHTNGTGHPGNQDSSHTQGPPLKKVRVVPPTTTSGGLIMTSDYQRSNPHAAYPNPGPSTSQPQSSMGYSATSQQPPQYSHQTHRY
# CDK8/cyclin C, sequence (P24863 whole entry partner): as the sequence (P24863 whole entry partner) above
# CYP3A4-MDZ, sequence (P08684 whole entry): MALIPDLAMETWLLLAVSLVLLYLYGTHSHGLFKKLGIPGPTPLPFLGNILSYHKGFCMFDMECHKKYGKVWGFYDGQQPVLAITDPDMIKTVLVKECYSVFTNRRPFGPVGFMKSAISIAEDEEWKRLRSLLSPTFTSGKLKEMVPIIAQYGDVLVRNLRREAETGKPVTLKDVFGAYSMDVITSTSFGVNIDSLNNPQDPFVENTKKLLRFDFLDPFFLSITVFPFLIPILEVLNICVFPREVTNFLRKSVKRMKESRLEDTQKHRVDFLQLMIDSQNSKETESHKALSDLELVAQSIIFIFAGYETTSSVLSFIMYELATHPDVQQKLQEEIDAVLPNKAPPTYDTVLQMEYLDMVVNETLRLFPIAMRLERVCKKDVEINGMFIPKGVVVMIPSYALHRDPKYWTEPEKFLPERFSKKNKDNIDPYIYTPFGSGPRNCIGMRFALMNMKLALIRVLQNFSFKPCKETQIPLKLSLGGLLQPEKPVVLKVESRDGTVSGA
# CYP1A2, sequence (P05177 whole entry): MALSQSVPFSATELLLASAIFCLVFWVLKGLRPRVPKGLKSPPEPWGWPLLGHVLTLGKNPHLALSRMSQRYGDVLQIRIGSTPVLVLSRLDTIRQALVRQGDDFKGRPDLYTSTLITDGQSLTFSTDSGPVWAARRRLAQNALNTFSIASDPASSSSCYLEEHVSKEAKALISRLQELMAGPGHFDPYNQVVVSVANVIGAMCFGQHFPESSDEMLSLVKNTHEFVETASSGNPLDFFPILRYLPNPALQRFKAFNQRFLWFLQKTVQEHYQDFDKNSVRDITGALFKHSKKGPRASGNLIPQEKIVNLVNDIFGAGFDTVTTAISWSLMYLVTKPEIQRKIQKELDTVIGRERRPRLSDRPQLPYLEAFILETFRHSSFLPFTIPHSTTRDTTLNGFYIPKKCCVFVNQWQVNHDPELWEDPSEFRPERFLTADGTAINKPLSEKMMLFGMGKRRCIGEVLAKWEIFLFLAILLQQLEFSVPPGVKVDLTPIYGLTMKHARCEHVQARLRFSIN
smiles,measurement,setting,value
Nc1nccc2c(Br)cc3cc(C(=O)O)ccc3c12 [MK256],Recover rate (%),MDCK-MDR1 cells,96%
same,"efflux ratio at 1 h, 5 µM",MDR1,0.2
same,"Papp A→B at 1 h, 5 μM",[1],57 ×10⁻⁶ cm/s
same,"Papp B→A at 1 h, 5 μM",[1],14 ×10⁻⁶ cm/s
same,"expression levels of p-STAT1 (S727), p-STAT3(S727), p-STAT5(S726)",[2]; 30 nM to 1 uM,trend of reduction
same,expression of MCL-1,"[2]; 30 nM to 1 uM, dose-dependent",reduced expression
same,"expression level of MCL-1, p-STAT3(S727) and p-STAT5(S726)",[2]; 1 uM,remained at minimal levels
same,expression level of p-STAT1(S727),[2]; 1 uM,abrogated completely
same,expression levels of p-STAT1(Y701) and p-STAT5(Y694),[2]; high concentrations,unaffected
same,IC50,CDK19/cyclin C,3.3 nM
same,fold reduction of activity against CDK9 in comparison to CDK8,CDK9; CDK9 IC50 vs CDK8 IC50,approximately 40 fold
same,IC50,CDK9; read-out: IC50 against CDK9,105 nM
same,IC50,CDK8/cyclin C,2.5 nM
same,cytochrome P450 inhibition,CYP3A4-MDZ,no inhibition
same,cytochrome P450 inhibition,CYR2C8,no inhibition
same,AUC(0-t),In vivo mouse PK study; [3],330 µM·h
same,Cmax,In vivo mouse PK study; [3],29 µM
same,half-life,In vivo mouse PK study; [3],3.6 h
same,bioavailability,In vivo mouse PK study; PO 30 mg/kg vs IV 3 mg/kg,59%
same,clearance,"In vivo mouse PK study; intravenous, 3 mg/kg",2.83 mL/min/kg
same,Vd,"In vivo mouse PK study; intravenous, 3 mg/kg, read-out: Vss",0.49 L/kg
same,cytochrome P450 inhibition,CYP1A2,no inhibition
same,IC50,SET-2,212 nM
